ChEMBL document CHEMBL6153079, “Discovery of noncovalent diaminopyrimidine-based Inhibitors for glioblastoma via a dual FAK/DNA targeting strategy” (Eur J Med Chem, 2025)
Active and inactive are the calls of the source. The rule behind the calls is not given here.

Experiments:
U-251 = experiment: Antiproliferative activity against human U-251 assessed as cell viability incubated for 48 hrs by MTT assay; type: functional, cell-based; settings: U-251, 48 h
Focal adhesion kinase 1 [1] = target: T1, Focal adhesion kinase 1 (Homo sapiens, UniProt Q05397); experiment: Inhibition of FAK (unknown origin) at 10 nM relative to control
Target sequence in this assay (Q05397 2-1052 limits assumed): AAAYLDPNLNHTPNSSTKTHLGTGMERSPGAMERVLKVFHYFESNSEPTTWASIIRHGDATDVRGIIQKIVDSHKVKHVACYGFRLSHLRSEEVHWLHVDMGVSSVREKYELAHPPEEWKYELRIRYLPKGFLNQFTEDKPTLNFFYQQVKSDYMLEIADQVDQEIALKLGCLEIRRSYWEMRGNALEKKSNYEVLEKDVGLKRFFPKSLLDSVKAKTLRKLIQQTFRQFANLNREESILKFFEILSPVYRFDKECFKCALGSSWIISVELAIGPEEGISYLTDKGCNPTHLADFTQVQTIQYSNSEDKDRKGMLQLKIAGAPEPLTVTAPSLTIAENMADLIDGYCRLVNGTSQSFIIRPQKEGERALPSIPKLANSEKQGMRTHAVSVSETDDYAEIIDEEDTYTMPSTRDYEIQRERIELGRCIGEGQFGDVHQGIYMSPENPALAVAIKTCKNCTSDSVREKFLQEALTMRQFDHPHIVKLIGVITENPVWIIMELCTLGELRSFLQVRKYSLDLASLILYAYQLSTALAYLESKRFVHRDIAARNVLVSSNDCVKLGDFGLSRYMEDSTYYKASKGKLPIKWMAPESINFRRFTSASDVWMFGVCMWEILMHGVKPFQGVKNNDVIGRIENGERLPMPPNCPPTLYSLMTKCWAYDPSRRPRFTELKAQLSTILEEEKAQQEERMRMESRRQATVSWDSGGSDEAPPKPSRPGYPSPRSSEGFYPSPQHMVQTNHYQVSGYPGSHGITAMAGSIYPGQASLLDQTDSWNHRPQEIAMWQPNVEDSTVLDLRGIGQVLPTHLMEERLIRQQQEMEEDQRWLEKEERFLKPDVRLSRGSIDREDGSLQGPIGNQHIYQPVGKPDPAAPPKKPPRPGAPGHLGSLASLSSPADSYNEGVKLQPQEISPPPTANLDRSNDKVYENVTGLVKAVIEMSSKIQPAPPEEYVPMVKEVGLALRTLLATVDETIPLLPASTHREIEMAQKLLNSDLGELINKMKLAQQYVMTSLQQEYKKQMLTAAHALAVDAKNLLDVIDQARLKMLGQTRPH

Focal adhesion kinase 1 [2] = target: T1, Focal adhesion kinase 1; experiment: Inhibition of FAK (unknown origin) preincubated for 10 mins followed by ATP and substrate addition and measured after 50 mins by HTRF analysis
Target sequence in this assay (Q05397 whole entry): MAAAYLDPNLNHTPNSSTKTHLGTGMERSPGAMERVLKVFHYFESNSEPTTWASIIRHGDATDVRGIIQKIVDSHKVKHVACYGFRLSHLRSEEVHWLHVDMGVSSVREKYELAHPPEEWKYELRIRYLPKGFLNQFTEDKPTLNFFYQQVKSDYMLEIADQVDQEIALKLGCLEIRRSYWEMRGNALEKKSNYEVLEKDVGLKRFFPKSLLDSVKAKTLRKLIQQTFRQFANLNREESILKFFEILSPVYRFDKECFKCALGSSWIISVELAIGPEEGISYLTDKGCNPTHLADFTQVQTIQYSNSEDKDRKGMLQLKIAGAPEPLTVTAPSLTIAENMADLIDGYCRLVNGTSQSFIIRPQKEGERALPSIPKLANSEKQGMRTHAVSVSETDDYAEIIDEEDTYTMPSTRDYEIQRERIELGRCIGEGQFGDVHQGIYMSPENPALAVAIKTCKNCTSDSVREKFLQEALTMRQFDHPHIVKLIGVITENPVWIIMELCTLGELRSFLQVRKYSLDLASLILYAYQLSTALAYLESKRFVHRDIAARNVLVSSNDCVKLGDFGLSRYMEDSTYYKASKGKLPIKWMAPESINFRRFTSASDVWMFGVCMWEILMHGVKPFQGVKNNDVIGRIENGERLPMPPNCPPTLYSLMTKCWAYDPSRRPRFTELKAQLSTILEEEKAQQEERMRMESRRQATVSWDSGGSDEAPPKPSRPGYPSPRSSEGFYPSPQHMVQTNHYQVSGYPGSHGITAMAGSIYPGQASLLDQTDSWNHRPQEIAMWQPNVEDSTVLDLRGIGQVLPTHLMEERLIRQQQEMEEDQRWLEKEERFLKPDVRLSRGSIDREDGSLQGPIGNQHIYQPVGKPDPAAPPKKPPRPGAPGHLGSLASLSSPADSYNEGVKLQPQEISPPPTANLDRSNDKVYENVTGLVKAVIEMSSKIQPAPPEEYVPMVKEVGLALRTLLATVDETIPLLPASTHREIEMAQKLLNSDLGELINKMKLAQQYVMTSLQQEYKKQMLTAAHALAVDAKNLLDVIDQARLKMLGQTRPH

[3] = Cytotoxicity against human LO2 assessed as cell viability incubated for 48 hrs by MTT assay; type: toxicity, cell-based, L02; settings: LO2 cells
[4] = Effective permeability of compound at pH 7.4 incubated for 16 hrs by LCMS analysis; type: ADME; settings: pH 7.4, 16 h
[5] = Selectivity ratio of IC50 for cytotoxicity against human LO2 assessed as cell viability to IC50 for antiproliferative activity against human U-251 assessed as cell viability; type: toxicity; settings: LO2 cells versus U-251 cells, read-out: Ratio IC50
[6] = Selectivity ratio of IC50 for cytotoxicity against human LO2 assessed as cell viability to IC50 for antiproliferative activity against human U-87 MG assessed as cell viability; type: toxicity; settings: LO2 cells versus U-87 MG cells, read-out: Ratio IC50
U-87 MG [7] = experiment: Antiproliferative activity against human U-87 MG assessed as inhibition of cell growth at 0.005 uM by clonogenic assay relative to control; type: functional, U-87MG ATCC
U-87 MG [8] = experiment: Inhibition of cell migration in human U-87 MG cells assessed as […] in migration distance at 0.1 to 1 uM incubated for 24 to 48 hrs by wound healing assay; type: functional, cell-based; settings: U-87MG ATCC, dose 0.1-1 µM, time lower 24.0 hrs, time upper […]
Focal adhesion kinase 1 [9] = target: T1, Focal adhesion kinase 1; experiment: Inhibition of FAK phosphorylation in human U-87 MG cells at 0.05 uM incubated for 24 hrs by Western blot analysis; type: cell-based
Target sequence in this assay (Q05397 2-1052 limits assumed): as the sequence (Q05397 2-1052 limits assumed) above

U-87 MG [10] = experiment: Inhibition of AKT phosphorylation in human U-87 MG cells at 0.05 uM incubated for 24 hrs by Western blot analysis; type: cell-based
U-87 MG [11] = experiment: Induction of apoptosis in human U-87 MG cells assessed as early apoptotic cells at 0.01 uM measured upto 24 hrs by Annexin V-FITC/PI staining based flow cytometry analysis (reference value: 0.45%); type: functional, U-87MG ATCC
U-87 MG [12] = experiment: Induction of apoptosis in human U-87 MG cells assessed as late apoptotic cells at 0.01 uM measured upto 24 hrs by Annexin V-FITC/PI staining based flow cytometry analysis (reference value: 0.54%); type: functional, U-87MG ATCC
U-87 MG [13] = experiment: Induction of apoptosis in human U-87 MG cells assessed as viable cells at 2 uM measured upto 24 hrs by Annexin V-FITC/PI staining based flow cytometry analysis (reference value: 98.4%); type: functional, U-87MG ATCC; settings: read-out: Activity
U-87 MG [14] = experiment: Induction of apoptosis in human U-87 MG cells assessed as early apoptotic cells at 2 uM measured upto 24 hrs by Annexin V-FITC/PI staining based flow cytometry analysis (reference value: 0.45%); type: functional, U-87MG ATCC
U-87 MG [15] = experiment: Induction of apoptosis in human U-87 MG cells assessed as late apoptotic cells at 2 uM measured upto 24 hrs by Annexin V-FITC/PI staining based flow cytometry analysis (reference value: 0.54%); type: functional, U-87MG ATCC
U-87 MG [16] = experiment: Induction of apoptosis in human U-87 MG cells assessed as necrotic cells at 2 uM measured upto 24 hrs by Annexin V-FITC/PI staining based flow cytometry analysis (reference value: 0.62%); type: functional, U-87MG ATCC
U-87 MG [17] = experiment: Induction of apoptosis in human U-87 MG cells assessed as late apoptotic cells at 0.02 uM measured upto 24 hrs by Annexin V-FITC/PI staining based flow cytometry analysis (reference value: 0.54%); type: functional, U-87MG ATCC
U-87 MG [18] = experiment: Induction of apoptosis in human U-87 MG cells assessed as late apoptotic cells at 0.2 uM measured upto 24 hrs by Annexin V-FITC/PI staining based flow cytometry analysis (reference value: 0.54%); type: functional, U-87MG ATCC
U-87 MG [19] = experiment: Induction of apoptosis in human U-87 MG cells assessed as necrotic cells at 0.2 uM measured upto 24 hrs by Annexin V-FITC/PI staining based flow cytometry analysis (reference value: 0.62%); type: functional, U-87MG ATCC
U-87 MG [20] = experiment: Induction of apoptosis in human U-87 MG cells assessed as […] in cleaved caspase-3 level at 0.05 to 0.8 uM incubated for 24 hrs by Western blot analysis; type: functional, cell-based; settings: U-87MG ATCC, dose 0.05-0.8 µM
U-87 MG [21] = experiment: Induction of cell cycle arrest in human U-87 MG cells assessed as accumulation of cells at G0/G1 phase at 0.01 uM by propidium Iodide staining based flow cytometry analysis (reference value: 80.68%); type: functional, U-87MG ATCC
U-87 MG [22] = experiment: Induction of cell cycle arrest in human U-87 MG cells assessed as accumulation of cells at G2M phase at 0.01 uM by propidium Iodide staining based flow cytometry analysis (reference value: 9.73%); type: functional, U-87MG ATCC
U-87 MG [23] = experiment: Induction of cell cycle arrest in human U-87 MG cells assessed as accumulation of cells at […] at 0.01 uM by propidium Iodide staining based flow cytometry analysis (reference value: 1.67%); type: functional, U-87MG ATCC
U-87 MG [24] = experiment: Induction of cell cycle arrest in human U-87 MG cells assessed as accumulation of cells at G0/G1 phase at 2 uM by propidium Iodide staining based flow cytometry analysis (reference value: 80.68%); type: functional, U-87MG ATCC
U-87 MG [25] = experiment: Induction of cell cycle arrest in human U-87 MG cells assessed as accumulation of cells at […] at 0.02 uM by propidium Iodide staining based flow cytometry analysis (reference value: 1.67%); type: functional, U-87MG ATCC
U-87 MG [26] = experiment: Induction of cell cycle arrest in human U-87 MG cells assessed as accumulation of cells at G2M phase at 0.2 uM by propidium Iodide staining based flow cytometry analysis (reference value: 9.73%); type: functional, U-87MG ATCC
U-87 MG [27] = experiment: Antitumor activity against human U-87 MG cells xenografted in BALB/c mouse assessed as inhibition of tumor growth at 25 mg/kg, ip administered once daily for 15 days; type: functional, U-87MG ATCC; settings: 360 h, time 15 day, read-out: TGI
[28] = Toxicity in BALB/c mouse implanted with human U-87 MG cells assessed as body weight loss at 5 to 25 mg/kg, ip administered once daily for 15 days by H and E staining based analysis; type: organism-based; settings: in vivo, 360 h, dose 5-25 mg/kg, time 15 day
[29] = Toxicity in BALB/c mouse implanted with human U-87 MG cells assessed as tolerability at 5 to 25 mg/kg, ip administered once daily for 15 days by H and E staining based analysis; type: organism-based; settings: in vivo, 360 h, dose 5-25 mg/kg, time 15 day
[30] = Toxicity in BALB/c mouse implanted with human U-87 MG cells assessed as liver damage at 5 mg/kg, ip administered once daily for 15 days by H and E staining based analysis; type: organism-based; settings: in vivo, 360 h, time 15 day
[31] = Toxicity in BALB/c mouse implanted with human U-87 MG cells assessed as lung damage at 5 mg/kg, ip administered once daily for 15 days by H and E staining based analysis; type: organism-based; settings: in vivo, 360 h, time 15 day
[32] = Toxicity in BALB/c mouse implanted with human U-87 MG cells assessed as liver damage at 25 mg/kg, ip administered once daily for 15 days by H and E staining based analysis; type: organism-based; settings: in vivo, 360 h, time 15 day
[33] = Toxicity in BALB/c mouse implanted with human U-87 MG cells assessed as tubular epithelial degeneration in renal cortex at 25 mg/kg, ip administered once daily for 15 days by H and E staining based analysis; type: organism-based; settings: in vivo, 360 h, time 15 day

Work on `CNC(=O)c1ccccc1Nc1nc(Nc2ccc(N3CCN(CCOC(=O)CCCc4ccc(N(CCCl)CCCl)cc4)CC3)cc2)ncc1C(F)(F)F` yielded an IC50 (U-251) of 0.02 µM, an inhibition (Focal adhesion kinase 1 [1]) of 98.6% and an IC50 (Focal adhesion kinase 1 [2]) of 0.000815 µM. The IC50 at 48 h [3] was 0.586 µM, the Peff [4] was 0.002 10^-6 cm/s and the selectivity ratio [5] was greater than 40. For the same compound, the selectivity ratio [6] was greater than 40, the inhibition at 0.005 µM (U-87 MG [7]) was 73% and the inhibition (U-87 MG [8]) was “Active”. The inhibition (Focal adhesion kinase 1 [9]) was “Active”, the inhibition (U-87 MG [10]) was “Active” and the Activity (U-87 MG [11]) was 15.8%. For the same compound, the Activity (U-87 MG [12]) was 4.61%, the viability at 2 µM (U-87 MG [13]) was 44.2% and the Activity (U-87 MG [14]) was 46.5%. It also gave an Activity (U-87 MG [15]) of 7.19%, an Activity (U-87 MG [16]) of 2.16% and an Activity (U-87 MG [17]) of 4.8%. For the same compound, the Activity (U-87 MG [18]) was 5.65%, the Activity (U-87 MG [19]) was 2.31% and the Activity (U-87 MG [20]) was “Active”. For the same compound, the Activity (U-87 MG [21]) was 69.64%, the Activity (U-87 MG [22]) was 16.53% and the Activity (U-87 MG [23]) was 1.77%. For the same compound, the Activity (U-87 MG [24]) was 38.9%, the Activity (U-87 MG [25]) was 1.87% and the Activity (U-87 MG [26]) was 43.61%. For the same compound, the inhibition in vivo at 25 mg/kg (U-87 MG [27]) was 82.5%, the Activity [28] was “Non-toxic” and the Activity [29] was “Non-toxic”. The Activity [30] was “Non-toxic”, the Activity [31] was “Non-toxic” and the Activity [32] was “Non-toxic”. The Activity [33] was “Non-toxic”.
